Measurements published in ChEMBL document CHEMBL4325829, “Design and Synthesis of Tubulin and Histone Deacetylase Inhibitor Based on iso-Combretastatin A-4” (J Med Chem, 2018).
pIC50: −log10 of the molar value. Activity calls are given as the source filed them. No cut-off for these calls is given here.

How the values were obtained:
[1] = biological target: Histone deacetylase 1 (Homo sapiens) (UniProt Q13547); experiment: Inhibition of human recombinant HDAC1 at 10^-5 M after 15 mins using fluorogenic substrate by fluorimetric assay relative to control
Chain of Histone deacetylase 1 (Homo sapiens) (Q13547 whole entry): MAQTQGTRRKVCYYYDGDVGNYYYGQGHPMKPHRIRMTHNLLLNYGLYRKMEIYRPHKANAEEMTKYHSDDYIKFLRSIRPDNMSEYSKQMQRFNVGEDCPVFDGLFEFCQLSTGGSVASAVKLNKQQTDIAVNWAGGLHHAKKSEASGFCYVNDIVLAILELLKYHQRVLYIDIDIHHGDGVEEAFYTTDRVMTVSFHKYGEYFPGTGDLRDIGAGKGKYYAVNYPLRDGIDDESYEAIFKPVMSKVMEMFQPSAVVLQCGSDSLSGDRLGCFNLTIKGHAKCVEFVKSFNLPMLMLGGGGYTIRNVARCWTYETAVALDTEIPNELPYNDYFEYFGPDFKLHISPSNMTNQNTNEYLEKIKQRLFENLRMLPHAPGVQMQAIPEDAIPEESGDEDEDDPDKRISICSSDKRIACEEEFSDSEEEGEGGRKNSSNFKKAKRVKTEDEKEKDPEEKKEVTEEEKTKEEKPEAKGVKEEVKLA

U-87 MG [2] = experiment: Potency index, ratio of IC50 for TSA to IC50 for test compound for antiproliferative activity against human U87 cells after 72 hrs by MTS assay; assay type: functional, U-87MG ATCC
[3] = Induction of apoptosis in human BL2 cells assessed as late apoptotic cells at 10 nM after 48 hrs by annexin V-FITC/propidium iodide double staining-based flow cytometry (reference value: 2.1%); assay type: functional
K-562R = experiment: Potency index, ratio of IC50 for isoCA4 to IC50 for test compound for antiproliferative activity against human K562R cells after 72 hrs by MTS assay; assay type: functional
MCF7 = experiment: Antiproliferative activity against human MCF7 cells after 72 hrs by MTS assay; assay type: functional; details: Homo sapiens, MCF7, 72 h
MIA PaCa-2 = experiment: Antiproliferative activity against human MIAPaCa2 cells after 72 hrs by MTS assay; assay type: functional; details: Homo sapiens, MIA PaCa-2, 72 h
[4] = biological target: T1, Protein deacetylase HDAC6 (Homo sapiens) (UniProt Q9UBN7); experiment: Inhibition of HDAC6 in human HT-29 cells assessed as acetylated alpha-tubulin levels at 25 uM after 24 hrs by Western blot analysis relative to control; assay type: cell-based
T1 sequence (whole entry): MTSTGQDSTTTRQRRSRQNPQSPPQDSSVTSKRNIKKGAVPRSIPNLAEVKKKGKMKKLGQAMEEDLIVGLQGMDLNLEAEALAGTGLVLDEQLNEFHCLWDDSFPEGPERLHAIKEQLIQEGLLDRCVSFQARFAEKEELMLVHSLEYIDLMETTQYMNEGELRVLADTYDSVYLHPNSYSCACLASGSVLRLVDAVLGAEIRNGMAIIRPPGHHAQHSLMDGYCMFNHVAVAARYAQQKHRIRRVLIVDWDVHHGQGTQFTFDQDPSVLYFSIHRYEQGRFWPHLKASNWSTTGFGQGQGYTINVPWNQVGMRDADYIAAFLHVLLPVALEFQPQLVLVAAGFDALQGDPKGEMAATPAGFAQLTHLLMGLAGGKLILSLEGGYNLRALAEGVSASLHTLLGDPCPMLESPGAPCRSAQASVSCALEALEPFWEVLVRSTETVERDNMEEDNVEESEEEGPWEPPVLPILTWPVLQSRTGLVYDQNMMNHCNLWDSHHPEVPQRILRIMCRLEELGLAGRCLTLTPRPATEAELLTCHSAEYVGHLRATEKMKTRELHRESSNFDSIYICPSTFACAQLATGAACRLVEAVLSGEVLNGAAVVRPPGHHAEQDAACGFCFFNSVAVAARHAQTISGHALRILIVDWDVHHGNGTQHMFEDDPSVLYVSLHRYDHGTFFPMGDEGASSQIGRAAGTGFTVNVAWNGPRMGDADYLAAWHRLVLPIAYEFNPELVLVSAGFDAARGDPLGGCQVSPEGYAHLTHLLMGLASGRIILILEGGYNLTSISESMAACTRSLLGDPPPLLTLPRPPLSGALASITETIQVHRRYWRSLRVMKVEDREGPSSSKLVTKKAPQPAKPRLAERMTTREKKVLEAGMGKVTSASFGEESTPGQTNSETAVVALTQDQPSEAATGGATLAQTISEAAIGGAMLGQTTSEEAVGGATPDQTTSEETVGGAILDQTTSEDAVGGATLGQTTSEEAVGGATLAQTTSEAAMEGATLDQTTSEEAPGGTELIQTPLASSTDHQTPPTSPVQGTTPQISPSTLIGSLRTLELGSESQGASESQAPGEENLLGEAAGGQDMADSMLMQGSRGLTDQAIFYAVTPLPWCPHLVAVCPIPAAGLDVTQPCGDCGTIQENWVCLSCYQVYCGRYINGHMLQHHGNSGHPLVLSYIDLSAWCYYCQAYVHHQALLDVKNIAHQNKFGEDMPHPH

PC-3 = experiment: Antiproliferative activity against human PC3 cells after 72 hrs by MTS assay; assay type: functional; details: Homo sapiens, PC-3, 72 h
BXPC-3 = experiment: Antiproliferative activity against human BxPC3 cells after 72 hrs by MTS assay; assay type: functional; details: Homo sapiens, BXPC-3, 72 h
Tubulin (Homo sapiens) [5] = biological target: T2, Tubulin (Homo sapiens) (UniProt P68371+Q9H4B7+P0DPH7+P68366+Q13509+Q71U36+P04350+Q3ZCM7+P07437+P68363+Q9BQE3+Q6PEY2+Q13885+Q9BVA1+Q9BUF5); experiment: Inhibition of tubulin polymerization in human K562 cells assessed as multinucleation at 10 nM after 24 hrs by DAPI-staining based inverted microscopy; assay type: cell-based
HT-29 [6] = experiment: Potency index, ratio of IC50 for isoCA4 to IC50 for test compound for antiproliferative activity against human HT-29 cells after 72 hrs by MTS assay; assay type: functional
[7] = Inhibition of sheep brain tubulin polymerization assessed as reduction in rate of microtubule assembly by DAPI-fluorescence based assay; parameters: species or system Ovis aries
[8] = biological target: Histone deacetylase 5 (Homo sapiens) (UniProt Q9UQL6); experiment: Inhibition of human recombinant HDAC5 at 10^-5 M after 30 mins using fluorogenic substrate by fluorimetric assay relative to control
Chain of Histone deacetylase 5 (Homo sapiens) (Q9UQL6 whole entry): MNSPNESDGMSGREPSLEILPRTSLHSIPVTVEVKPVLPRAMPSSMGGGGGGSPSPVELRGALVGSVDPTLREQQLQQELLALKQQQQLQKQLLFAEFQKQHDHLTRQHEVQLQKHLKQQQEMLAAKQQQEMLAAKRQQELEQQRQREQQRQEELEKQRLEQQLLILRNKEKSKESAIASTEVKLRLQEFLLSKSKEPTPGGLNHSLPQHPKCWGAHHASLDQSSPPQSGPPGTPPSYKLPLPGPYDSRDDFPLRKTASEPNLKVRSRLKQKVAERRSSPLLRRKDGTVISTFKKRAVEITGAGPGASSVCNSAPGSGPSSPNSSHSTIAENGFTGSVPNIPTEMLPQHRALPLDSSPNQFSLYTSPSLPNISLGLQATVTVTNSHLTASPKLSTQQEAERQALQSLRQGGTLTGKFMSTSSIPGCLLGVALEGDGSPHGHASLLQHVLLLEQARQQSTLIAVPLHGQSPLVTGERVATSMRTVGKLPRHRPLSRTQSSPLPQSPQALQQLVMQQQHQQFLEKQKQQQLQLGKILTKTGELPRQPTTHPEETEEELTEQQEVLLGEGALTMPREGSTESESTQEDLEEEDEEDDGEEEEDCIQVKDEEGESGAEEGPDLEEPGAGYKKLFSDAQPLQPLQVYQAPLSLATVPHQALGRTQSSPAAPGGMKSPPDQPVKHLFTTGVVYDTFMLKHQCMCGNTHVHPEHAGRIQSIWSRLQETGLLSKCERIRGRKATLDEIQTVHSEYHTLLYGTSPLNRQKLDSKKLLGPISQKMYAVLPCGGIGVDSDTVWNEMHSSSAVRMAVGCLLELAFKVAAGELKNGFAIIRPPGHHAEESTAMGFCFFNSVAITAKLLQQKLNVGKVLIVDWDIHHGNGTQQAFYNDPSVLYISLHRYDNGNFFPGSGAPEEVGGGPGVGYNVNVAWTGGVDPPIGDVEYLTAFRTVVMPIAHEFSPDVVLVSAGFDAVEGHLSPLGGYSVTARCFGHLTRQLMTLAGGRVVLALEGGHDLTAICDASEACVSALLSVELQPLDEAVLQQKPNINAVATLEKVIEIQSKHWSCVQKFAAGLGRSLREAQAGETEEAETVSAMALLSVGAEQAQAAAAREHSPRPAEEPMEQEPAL

Tubulin (Homo sapiens) [9] = biological target: T2, Tubulin (Homo sapiens); experiment: Inhibition of tubulin polymerization in human K562 cells assessed as shrinkage of microtubule spindles at 10 nM after 24 hrs by DAPI-staining based inverted microscopy; assay type: cell-based
[10] = biological target: Polyamine deacetylase HDAC10 (Homo sapiens) (UniProt Q969S8); experiment: Inhibition of human recombinant HDAC10 at 10^-5 M after 45 mins using fluorogenic substrate by fluorimetric assay relative to control
Chain of Polyamine deacetylase HDAC10 (Homo sapiens) (Q969S8 whole entry): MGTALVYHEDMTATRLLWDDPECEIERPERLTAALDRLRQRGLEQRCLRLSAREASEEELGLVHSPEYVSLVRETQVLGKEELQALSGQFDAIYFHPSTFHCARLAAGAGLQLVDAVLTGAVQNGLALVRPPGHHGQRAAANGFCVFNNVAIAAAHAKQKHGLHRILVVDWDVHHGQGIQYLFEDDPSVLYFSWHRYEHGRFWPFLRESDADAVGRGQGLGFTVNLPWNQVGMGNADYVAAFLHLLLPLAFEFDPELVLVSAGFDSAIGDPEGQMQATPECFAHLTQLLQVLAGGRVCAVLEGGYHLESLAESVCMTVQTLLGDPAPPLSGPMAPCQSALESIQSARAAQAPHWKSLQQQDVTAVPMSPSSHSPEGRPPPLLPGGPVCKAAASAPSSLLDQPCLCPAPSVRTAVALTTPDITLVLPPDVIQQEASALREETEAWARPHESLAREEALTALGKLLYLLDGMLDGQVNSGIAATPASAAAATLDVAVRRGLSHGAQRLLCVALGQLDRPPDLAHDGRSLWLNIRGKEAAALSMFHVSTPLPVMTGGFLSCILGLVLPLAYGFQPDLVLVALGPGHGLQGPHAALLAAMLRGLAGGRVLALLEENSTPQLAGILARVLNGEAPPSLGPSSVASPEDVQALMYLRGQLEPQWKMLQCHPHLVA

HCT-116 = experiment: Induction of cell cycle arrest in human HCT116 cells assessed as accumulation at G2/M phase at 5 to 10 nM after 24 hrs by propidium iodide-staining based flow cytometry; assay type: functional
U-87 MG [11] = experiment: Antiproliferative activity against human U87 cells after 72 hrs by MTS assay; assay type: functional, U-87MG ATCC; details: Homo sapiens, U-87 MG, 72 h
[12] = biological target: T1, Protein deacetylase HDAC6 (Homo sapiens); experiment: Inhibition of HDAC6 in human HT-29 cells assessed as acetylated alpha-tubulin levels at 25 uM after 6 hrs by Western blot analysis relative to control; assay type: cell-based
[13] = biological target: Histone deacetylase 4 (Homo sapiens) (UniProt P56524); experiment: Inhibition of human recombinant HDAC4 at 10^-5 M after 30 mins using fluorogenic substrate by fluorimetric assay relative to control
Chain of Histone deacetylase 4 (Homo sapiens) (P56524 whole entry): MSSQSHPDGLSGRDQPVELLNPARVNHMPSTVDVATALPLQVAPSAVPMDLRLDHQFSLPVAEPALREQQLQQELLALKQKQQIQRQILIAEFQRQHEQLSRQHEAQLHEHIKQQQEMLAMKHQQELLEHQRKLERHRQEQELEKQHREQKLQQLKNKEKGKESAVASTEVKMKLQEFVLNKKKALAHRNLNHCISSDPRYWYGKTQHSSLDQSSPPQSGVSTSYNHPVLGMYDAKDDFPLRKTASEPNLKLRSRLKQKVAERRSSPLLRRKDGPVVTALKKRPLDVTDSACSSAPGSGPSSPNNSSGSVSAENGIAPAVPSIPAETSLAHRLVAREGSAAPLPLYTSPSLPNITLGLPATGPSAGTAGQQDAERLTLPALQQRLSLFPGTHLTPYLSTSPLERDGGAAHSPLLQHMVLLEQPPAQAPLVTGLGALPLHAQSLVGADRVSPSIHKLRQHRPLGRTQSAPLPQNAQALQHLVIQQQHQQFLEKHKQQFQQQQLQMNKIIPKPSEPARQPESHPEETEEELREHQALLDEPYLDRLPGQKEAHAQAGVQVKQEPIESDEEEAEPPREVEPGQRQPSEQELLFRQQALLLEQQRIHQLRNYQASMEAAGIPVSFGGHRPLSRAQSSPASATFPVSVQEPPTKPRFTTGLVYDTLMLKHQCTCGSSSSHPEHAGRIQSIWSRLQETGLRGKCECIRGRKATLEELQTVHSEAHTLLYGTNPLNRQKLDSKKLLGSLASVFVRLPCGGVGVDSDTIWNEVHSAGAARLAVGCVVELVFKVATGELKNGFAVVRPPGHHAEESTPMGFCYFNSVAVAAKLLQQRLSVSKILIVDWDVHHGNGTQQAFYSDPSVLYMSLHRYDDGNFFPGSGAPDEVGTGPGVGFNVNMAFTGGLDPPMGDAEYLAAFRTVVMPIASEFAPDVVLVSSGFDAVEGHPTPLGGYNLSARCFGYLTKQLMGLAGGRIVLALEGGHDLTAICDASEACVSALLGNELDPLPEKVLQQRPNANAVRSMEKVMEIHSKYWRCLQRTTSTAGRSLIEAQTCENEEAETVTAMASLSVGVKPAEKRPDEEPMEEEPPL

[14] = biological target: Histone deacetylase (Homo sapiens) (UniProt Q13547+O15379+Q9UBN7+Q92769+Q9UQL6+Q8WUI4+Q9BY41+Q96DB2+P56524+Q9UKV0+Q969S8); experiment: Inhibition of HDAC in human HT-29 cells assessed as gamma-H2AX phosphorylation after 3 days by Western blot analysis; assay type: cell-based
HT-29 [15] = experiment: Antiproliferative activity against human HT-29 cells in presence of TSA after 72 hrs by MTS assay relative to control; assay type: functional, cell-based; details: HT-29, 72 h
[16] = biological target: T3, Protein deacetylase HDAC6 (Homo sapiens, UniProt Q9UBN7)
T3 sequence (Q9UBN7 whole entry): T1 sequence (whole entry)
Description: Inhibition of human recombinant HDAC6 after 30 mins using fluorogenic substrate by fluorimetric assay

Row | SMILES | inhibition [1] | Activity [3] [%] | GI50 (MCF7) [nM] | GI50 (MIA PaCa-2) [nM] | GI50 (PC-3) [nM] | GI50 (BXPC-3) [nM] | pIC50 [7] | inhibition [8] | inhibition [10] | GI50 (U-87 MG [11]) [nM] | inhibition [13] | further results
1 | C=C(c1ccc(OC)c(/C=C/C(=O)NO)c1)c1cc(OC)c(OC)c(OC)c1 | < 50% | 13.7 | 2 | 5.1 | 0.4 | 2.9 | 5.80 | < 50% | < 50% | 1.6 | < 50% | Ratio IC50 (U-87 MG [2]): 650; Ratio IC50 (K-562R): 2; fold change (FC) [4]: 0.5; Activity (Tubulin (Homo sapiens) [5]): Active; Ratio IC50 (HT-29 [6]): 135; Activity (Tubulin (Homo sapiens) [9]): Active; Activity (HCT-116): Active; fold change (FC) [12]: 0.4; inhibition [14]: Dose-dependent effect
2 | C=C(c1ccc(OC)c(O)c1)c1cc(OC)c(OC)c(OC)c1 | inactive | 14.3 | 8 | 10 | 3 | 20 | 5.70 | inactive | inactive | 8 | inactive | pIC50 (HT-29 [15]): 8.42; IC50 [16]: Not Active
